Measurements taken from publication PMC6338836, “Structural basis for prodrug recognition by the SLC15 family of proton-coupled peptide transporters” (Proceedings of the National Academy of Sciences of the …, 2019).
Residues, ends and D or L forms follow the SMILES beside them.

Legend:
(UniProt Z9YNX0M2M8) = assay: IC50 competition assay, PepTSh WT proteoliposomes; format: biochemical, Staphylococcus hominis; conditions: competition for dipeptide uptake
PepTSh N167A = assay: IC50 competition assay, PepTSh N167A variant; format: biochemical, Staphylococcus hominis
PepT1 = system: PepT1; set-up: method as in PMID 12649372; conditions: cited from earlier work
PepTSh = assay: IC50 competition assay, PepTSh WT proteoliposomes; format: biochemical, Staphylococcus hominis; conditions: for recognition: competition with AlaAla: N- or C-terminally blocked peptides
PepTSh Y41F = assay: IC50 competition assay, PepTSh Y41F variant; format: biochemical, Staphylococcus hominis; conditions: for IC50: PepTSh variant Y41F
PepTSh Y79F = assay: IC50 competition assay, PepTSh Y79F variant; format: biochemical, Staphylococcus hominis
[1] = set-up: method as in PMID 23264448, PMID 9610386; conditions: cited from earlier work
PepTSh N426A = assay: IC50 competition assay, PepTSh N426A variant; format: biochemical, Staphylococcus hominis; conditions: PepTSh N426 removed (N426A)
PepTSh Y41A = assay: IC50 competition assay, PepTSh Y41A variant; format: biochemical, Staphylococcus hominis; conditions: PepTSh Y41 removed (Y41A)
PepTSh Y163A = assay: IC50 competition assay, PepTSh Y163A variant; format: biochemical, Staphylococcus hominis; conditions: PepTSh Y163 removed (Y163A)
PepTSh N426L = assay: IC50 competition assay, PepTSh N426L variant; format: biochemical, Staphylococcus hominis; conditions: PepTSh N426 replaced with leucine (N426L)

SMILES: NCC(=O)CCC(=O)O [5-aminolevulinic acid]
- IC50 ((UniProt Z9YNX0M2M8)): 10400 µM
- effect of variant on affinity / IC50 compared with WT (PepTSh N167A): unchanged
- IC50 (PepT1): 2100 µM

SMILES: CC(=O)N[C@@H](C)C(=O)N[C@@H](C)C(=O)O [Ac-AA-OH] (Ac-Ala-Ala-OH)
- recognition: competition with AlaAla (PepTSh): can no longer bind the

SMILES: C[C@H](N)C(=O)N[C@@H](C)C(=O)O [Ala-Ala, dialanine] (H-Ala-Ala-OH)
- IC50 (PepTSh Y41F): 866 µM
- effect of variant on transport compared with WT (PepTSh Y79F; PepTSh Y79F): limited effect

SMILES: C[C@H](N)C(=O)N[C@@H](C)C(=O)N[C@@H](C)C(=O)O [Ala-Ala-Ala, trialanine]
- effect of variant on IC50 compared with WT (PepTSh Y41F; PepTSh Y41F): no effect
- IC50 (PepTSh Y79F; PepTSh variant Y79F): 5.3 µM

SMILES: C[C@H](N)C(=O)N[C@@H](C)C(N)=O [H-AA-NH2] (H-Ala-Ala-NH2)
- recognition: competition with AlaAla (PepTSh): can compete with AlaAla

SMILES: Nc1nc2c(ncn2COCCO)c(=O)[nH]1 [acyclovir]
- oral bioavailability [1]: 15%

SMILES: CC(C)[C@H](N)C(=O)OCCOCn1cnc2c(=O)[nH]c(N)nc21 [valacyclovir]
- oral bioavailability [1]: > 50%
- IC50 (PepTSh Y41F): 1300 µM
- effect of variant on affinity compared with WT (PepTSh N426A): improved affinity
- IC50 (PepTSh; competition for dipeptide uptake): 7400 µM
- effect of variant on affinity / IC50 compared with WT (PepTSh N167A): little effect on the affinity
- effect of variant on affinity compared with WT (PepTSh Y41A): little effect on the affinity
- effect of variant on recognition (PepTSh Y163A): abrogated valacyclovir recognition
- effect of variant on affinity compared with WT (PepTSh N426L): negligible effect
